The values below come from the supplement of paper PMC10307832.

Holding throughout (test): relative viability (nuclei count vs DMSO), 5 days (fraction); higher = more cells survive
Compound in the experiment “GSK-J4 + OSI-027”: CCOC(=O)CCNc1cc(N2CCc3ccccc3CC2)nc(-c2ccccn2)n1 [GSK-J4] + COc1cccc2cc(-c3nc([C@H]4CC[C@H](C(=O)O)CC4)n4ncnc(N)c34)[nH]c12 [OSI-027] (partner 0.5 µM)
A digest of the protocol: (§1)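 For relative viability, nuclei counts in treated wells were divided by those in vehicle wells. Lung cancer cell lines had been pin-tool dosed in 1536-well plates the day after seeding and cultured for 5 days, then fixed and stained in one step (final 0.05% Triton X-100, 1% formaldehyde, 1 ug/ml Hoechst) and imaged at 4×. Doses were one drug alone or a fixed anchor-drug dose plus five library-drug doses (not always all listed) in √10 steps, and values are duplicate-plate medians.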

Compound in the experiment “GSK-J4 + Tozasertib”: CCOC(=O)CCNc1cc(N2CCc3ccccc3CC2)nc(-c2ccccn2)n1 [GSK-J4] + Cc1cc(Nc2cc(N3CCN(C)CC3)nc(Sc3ccc(NC(=O)C4CC4)cc3)n2)n[nH]1 [Tozasertib] (partner 0.1 µM)
The gist of the method:
as §1

Compound in the experiment “GSK-J4 + Linsitinib”: CCOC(=O)CCNc1cc(N2CCc3ccccc3CC2)nc(-c2ccccn2)n1 [GSK-J4] + C[C@]1(O)C[C@@H](c2nc(-c3ccc4ccc(-c5ccccc5)nc4c3)c3c(N)nccn32)C1 [Linsitinib] (partner 1 µM)
The gist of the method: as §1

Compound in the experiment “GSK-J4 + Pictilisib”: CCOC(=O)CCNc1cc(N2CCc3ccccc3CC2)nc(-c2ccccn2)n1 [GSK-J4] + CS(=O)(=O)N1CCN(Cc2cc3nc(-c4cccc5[nH]ncc45)nc(N4CCOCC4)c3s2)CC1 [Pictilisib] (partner 1 µM)
The gist of the method: as §1

As to PC-3 [JPC-3], the relative viability with GSK-J4 + OSI-027 (first compound 0.5 µM) turned out to be 0.71; with GSK-J4 + OSI-027 (first compound 1.581 µM) it was 0.65; with GSK-J4 + OSI-027 (first compound 5 µM) it was 0.737; in the experiment with GSK-J4 + OSI-027 (first compound 15.81 µM) it was 0.585; with GSK-J4 + OSI-027 (first compound 50 µM) it was 0.732; in the experiment with GSK-J4 + Tozasertib (first compound 0.5 µM) it was 0.838. In addition, the relative viability with GSK-J4 + Tozasertib (first compound 1.581 µM) worked out at 0.824; with GSK-J4 + Tozasertib (first compound 5 µM), 0.883; in the experiment with GSK-J4 + Tozasertib (first compound 15.81 µM), 0.815; with GSK-J4 + Tozasertib (first compound 50 µM), 0.702; with GSK-J4 + Linsitinib (first compound 0.5 µM) it was 0.883; with GSK-J4 + Linsitinib (first compound 1.581 µM), 0.928. The relative viability with GSK-J4 + Linsitinib (first compound 5 µM) came to 0.961; with GSK-J4 + Linsitinib (first compound 15.81 µM) it was 0.908; in the experiment with GSK-J4 + Linsitinib (first compound 50 µM), 0.945; with GSK-J4 + Pictilisib (first compound 0.5 µM), 0.644; with GSK-J4 + Pictilisib (first compound 1.581 µM), 0.647; with GSK-J4 + Pictilisib (first compound 5 µM) it was 0.757. Further, the relative viability with GSK-J4 + Pictilisib (first compound 15.81 µM) worked out at 0.742; with GSK-J4 + Pictilisib (first compound 50 µM), 0.671.

For PC-14, the relative viability with GSK-J4 + OSI-027 (first compound 0.5 µM) is 0.844; with GSK-J4 + OSI-027 (first compound 1.581 µM) it was 0.759; in the experiment with GSK-J4 + OSI-027 (first compound 5 µM), 0.777; with GSK-J4 + OSI-027 (first compound 15.81 µM), 0.778; in the experiment with GSK-J4 + OSI-027 (first compound 50 µM) it was 0.694; with GSK-J4 + Tozasertib (first compound 0.5 µM) it was 0.547. Moreover, the relative viability was found to be 0.542 with GSK-J4 + Tozasertib (first compound 1.581 µM); 0.564 with GSK-J4 + Tozasertib (first compound 15.81 µM); 0.665 with GSK-J4 + Tozasertib (first compound 50 µM); 0.909 in the experiment with GSK-J4 + Linsitinib (first compound 0.5 µM); 0.918 with GSK-J4 + Linsitinib (first compound 1.581 µM); 0.86 with GSK-J4 + Linsitinib (first compound 5 µM). Also, the relative viability in the experiment with GSK-J4 + Linsitinib (first compound 15.81 µM) turned out to be 0.915; with GSK-J4 + Linsitinib (first compound 50 µM), 1.05; with GSK-J4 + Pictilisib (first compound 0.5 µM) it was 0.642; with GSK-J4 + Pictilisib (first compound 1.581 µM), 0.672; with GSK-J4 + Pictilisib (first compound 5 µM), 0.678; with GSK-J4 + Pictilisib (first compound 15.81 µM), 0.714. In the experiment with GSK-J4 + Pictilisib (first compound 50 µM), the relative viability turned out to be 0.615.

With RERF-LC-KJ, the relative viability with GSK-J4 + OSI-027 (first compound 0.5 µM) stood at 0.582; in the experiment with GSK-J4 + OSI-027 (first compound 1.581 µM), 0.475; in the experiment with GSK-J4 + OSI-027 (first compound 5 µM), 0.485; in the experiment with GSK-J4 + OSI-027 (first compound 15.81 µM) it was 0.473; in the experiment with GSK-J4 + OSI-027 (first compound 50 µM), 0.382; with GSK-J4 + Tozasertib (first compound 0.5 µM) it was 0.415. Moreover, the relative viability with GSK-J4 + Tozasertib (first compound 1.581 µM) turned out to be 0.428; in the experiment with GSK-J4 + Tozasertib (first compound 5 µM), 0.483; with GSK-J4 + Tozasertib (first compound 15.81 µM) it was 0.493; with GSK-J4 + Tozasertib (first compound 50 µM), 0.357; with GSK-J4 + Linsitinib (first compound 0.5 µM) it was 0.93; with GSK-J4 + Linsitinib (first compound 1.581 µM), 0.818. The relative viability stood at 0.852 with GSK-J4 + Linsitinib (first compound 5 µM); 0.856 in the experiment with GSK-J4 + Linsitinib (first compound 15.81 µM); 0.777 with GSK-J4 + Linsitinib (first compound 50 µM); 0.465 with GSK-J4 + Pictilisib (first compound 0.5 µM); 0.459 with GSK-J4 + Pictilisib (first compound 1.581 µM); 0.639 with GSK-J4 + Pictilisib (first compound 5 µM). The relative viability was found to be 0.635 in the experiment with GSK-J4 + Pictilisib (first compound 15.81 µM) and 0.434 with GSK-J4 + Pictilisib (first compound 50 µM).

Consider SK-LU-1, for which the relative viability with GSK-J4 + OSI-027 (first compound 0.5 µM) came out at 0.339; in the experiment with GSK-J4 + OSI-027 (first compound 1.581 µM), 0.318; with GSK-J4 + OSI-027 (first compound 5 µM) it was 0.258; with GSK-J4 + OSI-027 (first compound 15.81 µM), 0.292; with GSK-J4 + OSI-027 (first compound 50 µM) it was 0.218; with GSK-J4 + Tozasertib (first compound 0.5 µM), 0.306. Further, the relative viability with GSK-J4 + Tozasertib (first compound 1.581 µM) stood at 0.28; with GSK-J4 + Tozasertib (first compound 5 µM) it was 0.289; in the experiment with GSK-J4 + Tozasertib (first compound 15.81 µM), 0.326; in the experiment with GSK-J4 + Tozasertib (first compound 50 µM), 0.276; with GSK-J4 + Linsitinib (first compound 0.5 µM), 1.08; with GSK-J4 + Linsitinib (first compound 1.581 µM) it was 1.18. The relative viability came to 0.716 with GSK-J4 + Linsitinib (first compound 5 µM); 0.911 with GSK-J4 + Linsitinib (first compound 15.81 µM); 0.777 with GSK-J4 + Linsitinib (first compound 50 µM); 0.565 with GSK-J4 + Pictilisib (first compound 0.5 µM); 0.543 in the experiment with GSK-J4 + Pictilisib (first compound 1.581 µM); 0.483 in the experiment with GSK-J4 + Pictilisib (first compound 5 µM). The values for the relative viability with GSK-J4 + Pictilisib (first compound 15.81 µM) and in the experiment with GSK-J4 + Pictilisib (first compound 50 µM) were 0.512 and 0.408, respectively.

Take SK-MES-1: the relative viability is 0.573 with GSK-J4 + OSI-027 (first compound 0.5 µM); 0.542 with GSK-J4 + OSI-027 (first compound 1.581 µM); 0.535 with GSK-J4 + OSI-027 (first compound 5 µM); 0.436 with GSK-J4 + OSI-027 (first compound 15.81 µM); 0.327 in the experiment with GSK-J4 + OSI-027 (first compound 50 µM); 0.821 with GSK-J4 + Tozasertib (first compound 0.5 µM). The relative viability is 0.854 in the experiment with GSK-J4 + Tozasertib (first compound 1.581 µM); 0.736 with GSK-J4 + Tozasertib (first compound 5 µM); 0.856 with GSK-J4 + Tozasertib (first compound 15.81 µM); 0.524 with GSK-J4 + Tozasertib (first compound 50 µM); 0.994 in the experiment with GSK-J4 + Linsitinib (first compound 0.5 µM); 0.975 with GSK-J4 + Linsitinib (first compound 1.581 µM). The relative viability in the experiment with GSK-J4 + Linsitinib (first compound 5 µM) amounted to 0.827; in the experiment with GSK-J4 + Linsitinib (first compound 15.81 µM) it was 0.993; in the experiment with GSK-J4 + Linsitinib (first compound 50 µM), 0.994; with GSK-J4 + Pictilisib (first compound 0.5 µM), 0.37; with GSK-J4 + Pictilisib (first compound 1.581 µM) it was 0.265; with GSK-J4 + Pictilisib (first compound 5 µM) it was 0.394. Further, the values for the relative viability in the experiment with GSK-J4 + Pictilisib (first compound 15.81 µM) and with GSK-J4 + Pictilisib (first compound 50 µM) were 0.348 and 0.34, respectively.

For SW 1573, the relative viability in the experiment with GSK-J4 + OSI-027 (first compound 0.5 µM) is 0.657; with GSK-J4 + OSI-027 (first compound 1.581 µM), 0.423; with GSK-J4 + OSI-027 (first compound 5 µM) it was 0.507; in the experiment with GSK-J4 + OSI-027 (first compound 15.81 µM), 0.519; with GSK-J4 + OSI-027 (first compound 50 µM), 0.211; with GSK-J4 + Tozasertib (first compound 0.5 µM), 0.206. For the same cell line, the relative viability with GSK-J4 + Tozasertib (first compound 1.581 µM) amounted to 0.129; with GSK-J4 + Tozasertib (first compound 5 µM), 0.164; in the experiment with GSK-J4 + Tozasertib (first compound 15.81 µM), 0.199; with GSK-J4 + Tozasertib (first compound 50 µM), 0.177; with GSK-J4 + Linsitinib (first compound 0.5 µM), 0.81; with GSK-J4 + Linsitinib (first compound 1.581 µM) it was 0.755. For the same cell line, the relative viability with GSK-J4 + Linsitinib (first compound 5 µM) was found to be 0.802; with GSK-J4 + Linsitinib (first compound 15.81 µM) it was 0.703; with GSK-J4 + Linsitinib (first compound 50 µM), 0.595; with GSK-J4 + Pictilisib (first compound 0.5 µM), 0.526; with GSK-J4 + Pictilisib (first compound 1.581 µM) it was 0.562; with GSK-J4 + Pictilisib (first compound 5 µM), 0.549. The relative viability with GSK-J4 + Pictilisib (first compound 15.81 µM) amounted to 0.544; in the experiment with GSK-J4 + Pictilisib (first compound 50 µM), 0.294.
